US20110183978A1, “Phenylpyri(mi)dinylazoles” (Bayer CropScience AG, priority 2009, published 2011)

experiment: physchem; settings: LogPA

With `Fc1ccc(-c2nn(C3CCCCC3)cc2-c2ccncc2)cc1` [Compound 168] as the compound, how does the chromatographic logP read?
The chromatographic logP was 1.91.

Which chromatographic logP does the source give for `CC(C)Nc1nccc(-c2c[nH]nc2-c2ccc(F)cc2)n1` [Compound 172] here?
The chromatographic logP was 1.37.

With `N#Cc1[nH]nc(-c2ccc(F)cc2)c1-c1ccncc1` [Compound 175] as the compound, how does the chromatographic logP read?
The chromatographic logP was 1.08.

Which chromatographic logP does the source give for `FCC(CF)n1cc(-c2ccncc2)c(-c2ccc(F)cc2)n1` [Compound 177] here?
The chromatographic logP was 1.16.

For `CC(C)Cn1cc(-c2ccnc(NCc3ccccc3)n2)c(-c2ccc(F)cc2)n1` [Compound 182], which chromatographic logP is on record?
Its chromatographic logP is 3.15.

With `CC(C)Cn1cc(-c2ccnc(N(C(=O)C(C)C)C(C)C)n2)c(-c2ccc(F)cc2)n1` [Compound 185] as the compound, how does the chromatographic logP read?
Its chromatographic logP is 4.25.

Which chromatographic logP does the source give for `CC(C)Cn1cc(-c2ccnc(N(C(=O)C(C)(C)C(=O)C(C)C)C(C)C)n2)c(-c2ccc(F)cc2)n1` [Compound 186] here?
Its chromatographic logP is 3.02.

Which chromatographic logP does the source give for `CC(C)Cn1cc(-c2ccnc(N3CCCC3=O)c2)c(-c2ccc(F)cc2)n1` [Compound 187] here?
Its chromatographic logP is 3.19.

Which chromatographic logP does the source give for `CC(C)Cn1cc(-c2ccnc(N(C(=O)C(C)C)C(=O)C(C)C)n2)c(-c2ccc(F)cc2)n1` [Compound 188] here?
Its chromatographic logP is 4.74.

Which chromatographic logP does the source give for `CCn1cc(-c2ccnc(NC(=O)Cc3ccccc3)c2)c(-c2ccc(F)cc2)n1` [Compound 190] here?
The chromatographic logP was 2.72.

With `CCC(=O)Nc1cc(-c2c(-c3ccc(Cl)cc3F)nn(C)c2C(F)(F)F)ccn1` [Compound 197] as the compound, how does the chromatographic logP read?
The chromatographic logP was 3.32.

With `COCC(=O)Nc1cc(-c2c(-c3cc(F)c(C#N)cc3F)nn(C)c2OC(F)F)ccn1` [Compound 199] as the compound, how does the chromatographic logP read?
The chromatographic logP was 2.59.

With `COCC(=O)Nc1cc(-c2c(-c3ccc(F)cc3O)nn(C)c2OC(F)F)ccn1` [Compound 201] as the compound, how does the chromatographic logP read?
Its chromatographic logP is 2.38.

Which chromatographic logP does the source give for `COCC(=O)Nc1cc(-c2c(-c3ccc(Cl)cc3F)nn(C)c2C(F)(F)F)ccn1` [Compound 202] here?
Its chromatographic logP is 3.45.

For `COCC(=O)Nc1cc(-c2cn(C3CCN(C(=O)OC(C)(C)C)CC3)nc2-c2ccc(F)cc2)ccn1` [Compound 204], which chromatographic logP is on record?
Its chromatographic logP is 3.51.

For `CC(C)S(=O)(=O)Nc1cc(-c2cn(CC(F)F)nc2-c2ccc(F)cc2)ccn1` [Compound 234], which chromatographic logP is on record?
Its chromatographic logP is 3.96.

Which chromatographic logP does the source give for `CCOC(=O)Nc1cc(-c2cn(C(C)c3ccccc3F)nc2-c2ccc(F)cc2)ccn1` (stereo not shown) [Compound 263] here?
Its chromatographic logP is 3.65.

For `CCOC(=O)Nc1cc(-c2cn(Cc3ccccc3F)nc2-c2ccc(F)cc2)ccn1` [Compound 266], which chromatographic logP is on record?
The chromatographic logP was 3.24.

same assay, conditions: LogPA (logP of the stated pure compound or, in a mixture, of the main isomer, 1-substituted 3-aryl-1H-pyrazole)

For `CC(C)=CCn1cc(-c2ccncn2)c(-c2cccc(Cl)c2)n1` [Compound 34], which chromatographic logP is on record?
Its chromatographic logP is 3.5.

For `FC(F)(F)c1cccc(-c2nn(C3CCCCO3)cc2-c2cc(N3CCOCC3)ncn2)c1` (stereo not shown) [Compound 36], which chromatographic logP is on record?
Its chromatographic logP is 2.1.

For `CCC(C)n1ncc(-c2ccncc2)c1-c1c(F)cccc1F` (stereo not shown) [Compound 38], which chromatographic logP is on record?
The chromatographic logP was 1.9.

Which chromatographic logP does the source give for `Nc1cc(-c2cn(C3CCCCO3)nc2-c2ccc(F)cc2)ccn1` (stereo not shown) [Compound 39] here?
The chromatographic logP was 1.38.

Which chromatographic logP does the source give for `FC(F)(F)c1cccc(-c2nn(C3CCCCO3)cc2-c2ccncc2)c1` (stereo not shown) [Compound 42] here?
The chromatographic logP was 1.84.

With `COc1ccc(-c2nn(C3CCCCO3)cc2-c2ccncc2)cc1` (stereo not shown) [Compound 43] as the compound, how does the chromatographic logP read?
The chromatographic logP was 1.24.

Which chromatographic logP does the source give for `COc1ccc(-c2c(-c3ccncc3)cnn2C2CCCCO2)c2ccccc12` (stereo not shown) [Compound 45] here?
Its chromatographic logP is 1.69.

Which chromatographic logP does the source give for `CC(C)(C)C(=O)Nc1cc(-c2cn(C3CCCCO3)nc2-c2cccc(C(F)(F)F)c2)ccn1` (stereo not shown) [Compound 48] here?
The chromatographic logP was 4.1.

For `C#CCn1ccc2c(-c3cn(C4CCCCO4)nc3-c3ccc(F)cc3)ccnc21` (stereo not shown) [Compound 49], which chromatographic logP is on record?
Its chromatographic logP is 3.47.

For `Fc1ccc(-c2c(-c3ccncc3)cnn2C2CCCCO2)cc1Cl` (stereo not shown) [Compound 51, 4-[5-(3-chloro-4-fluorophenyl)-1-(tetrahydro-2H-pyran-2-yl)-1H-pyrazol-4-yl]pyridine], which chromatographic logP is on record?
The chromatographic logP was 1.57.

For `Fc1ccc(-c2nn(C3CCCCO3)cc2-c2cc(N3CCOCC3)ncn2)cc1` (stereo not shown) [Compound 52], which chromatographic logP is on record?
Its chromatographic logP is 1.49.

With `Cc1cc(-c2c(-c3ccncc3)cnn2C2CCCCO2)ccc1F` (stereo not shown) [Compound 55] as the compound, how does the chromatographic logP read?
Its chromatographic logP is 1.47.

For `Fc1ccc(-c2c(-c3ccncc3)cnn2C2CCCCO2)c(F)c1` (stereo not shown) [Compound 56, 4-[5-(2,4-difluorophenyl)-1-(tetrahydro-2H-pyran-2-yl)-1H-pyrazol-4-yl]pyridine], which chromatographic logP is on record?
The chromatographic logP was 1.35.

Which chromatographic logP does the source give for `CC(C)(C)c1ccc(-c2c(-c3ccncc3)cnn2C2CCCCO2)cc1` (stereo not shown) [Compound 57, 4-[5-(4-tert-butylphenyl)-1-(tetrahydro-2H-pyran-2-yl)-1H-pyrazol-4-yl]pyridine] here?
Its chromatographic logP is 2.02.

With `N#Cc1cc(-c2c(-c3ccncc3)cnn2C2CCCCO2)ccc1F` (stereo not shown) [Compound 61, 2-fluoro-5-[4-(pyridin-4-yl)-1-(tetrahydro-2H-pyran-2-yl)-1H-pyrazol-5-yl]benzonitrile] as the compound, how does the chromatographic logP read?
Its chromatographic logP is 1.45.

With `COc1ccc(-c2nn(C3CCCCO3)cc2-c2cc(-n3cccn3)ncn2)cc1` (stereo not shown) [Compound 62] as the compound, how does the chromatographic logP read?
Its chromatographic logP is 3.32.

Which chromatographic logP does the source give for `CCNc1cc(-c2cn(C3CCCCO3)nc2-c2ccc(F)cc2)ncn1` (stereo not shown) [Compound 63] here?
The chromatographic logP was 1.42.

With `COc1cc(F)ccc1-c1c(-c2ccncc2)cnn1C1CCCCO1` (stereo not shown) [Compound 64, 4-[5-(4-fluoro-2-methoxyphenyl)-1-(tetrahydro-2H-pyran-2-yl)-1H-pyrazol-4-yl]pyridine] as the compound, how does the chromatographic logP read?
Its chromatographic logP is 1.26.

For `COc1ccc(-c2nn(C3CCCCO3)cc2-c2ncnc3[nH]ccc23)cc1` (stereo not shown) [Compound 65], which chromatographic logP is on record?
The chromatographic logP was 1.54.

With `c1ccc(Oc2cccc(-c3c(-c4ccncc4)cnn3C3CCCCO3)c2)cc1` (stereo not shown) [Compound 67, 4-[5-(3-phenoxyphenyl)-1-(tetrahydro-2H-pyran-2-yl)-1H-pyrazol-4-yl]pyridine] as the compound, how does the chromatographic logP read?
The chromatographic logP was 1.88.

With `CS(=O)(=O)c1ccc(-c2c(-c3ccncc3)cnn2C2CCCCO2)cc1` (stereo not shown) [Compound 68, 4-{5-[4-(methylsulphonyl)phenyl]-1-(tetrahydro-2H-pyran-2-yl)-1H-pyrazol-4-yl}pyridine] as the compound, how does the chromatographic logP read?
Its chromatographic logP is 0.96.

Which chromatographic logP does the source give for `COc1ccc(-c2nn(C3CCCCO3)cc2-c2ccnc(N)c2)cc1` (stereo not shown) [Compound 69] here?
Its chromatographic logP is 1.31.

With `FC(F)(F)Oc1ccc(-c2c(-c3ccncc3)cnn2C2CCCCO2)cc1` (stereo not shown) [Compound 71] as the compound, how does the chromatographic logP read?
Its chromatographic logP is 1.78.

Which chromatographic logP does the source give for `COc1ccc(-c2nn(C3CCCCO3)cc2-c2ccnc(C)c2)cc1` (stereo not shown) [Compound 73] here?
The chromatographic logP was 1.33.

For `CSc1nccc(-c2cn(C3CCCCO3)nc2-c2ccc(F)cc2)n1` (stereo not shown) [Compound 74], which chromatographic logP is on record?
Its chromatographic logP is 3.58.

Which chromatographic logP does the source give for `Clc1cccc(-c2c(-c3ccncc3)cnn2C2CCCCO2)c1Cl` (stereo not shown) [Compound 76, 4-[5-(2,3-dichlorophenyl)-1-(tetrahydro-2H-pyran-2-yl)-1H-pyrazol-4-yl]pyridine] here?
The chromatographic logP was 1.66.

Which chromatographic logP does the source give for `COc1ccc(-c2nn(C3CCCCO3)cc2-c2ccnc(C)n2)cc1` (stereo not shown) [Compound 77] here?
The chromatographic logP was 2.27.

For `Fc1ccc(-c2nn(-c3ccc(C(F)(F)F)cn3)cc2-c2ccncc2)cc1` [Compound 79], which chromatographic logP is on record?
The chromatographic logP was 2.64.

Which chromatographic logP does the source give for `COc1ccc(-c2nn(C3CCCCO3)cc2-c2ccnc3[nH]ccc23)cc1` (stereo not shown) [Compound 80] here?
Its chromatographic logP is 1.87.

For `CC(C)(C)C(=O)Nc1cc(-c2cnn(C3CCCCO3)c2-c2cccc(C(F)(F)F)c2)ccn1` (stereo not shown) [Compound 82], which chromatographic logP is on record?
Its chromatographic logP is 3.84.

Which chromatographic logP does the source give for `CNC(=O)c1cc(-c2cn(C3CCCCO3)nc2-c2cccc(Cl)c2)ccn1` (stereo not shown) [Compound 83] here?
The chromatographic logP was 3.15.

For `CNC(=O)c1cc(-c2cn(C3CCCCO3)nc2-c2ccc(F)cc2)ccn1` (stereo not shown) [Compound 90], which chromatographic logP is on record?
The chromatographic logP was 2.72.

Which chromatographic logP does the source give for `O=C(Nc1ccccc1)c1cc(-c2cn(C3CCCCO3)nc2-c2ccc(F)cc2)ccn1` (stereo not shown) [Compound 94] here?
Its chromatographic logP is 4.34.

Which chromatographic logP does the source give for `NC(=O)c1cc(-c2cn(C3CCCCO3)nc2-c2cccc(Cl)c2)ccn1` (stereo not shown) [Compound 95] here?
Its chromatographic logP is 2.93.

For `O=C(Nc1ccccc1)c1cc(-c2cn(C3CCCCO3)nc2-c2cccc(Cl)c2)ccn1` (stereo not shown) [Compound 96], which chromatographic logP is on record?
The chromatographic logP was 4.89.

With `CC(C)n1ncc(-c2ccnc(N)c2)c1-c1ccc(F)cc1` [Compound 97] as the compound, how does the chromatographic logP read?
The chromatographic logP was 1.25.

For `c1ccc(COc2ccccc2-c2c(-c3ccncc3)cnn2C2CCCCO2)cc1` (stereo not shown) [Compound 98, 4-{5-[2-(benzyloxy)phenyl]-1-(tetrahydro-2H-pyran-2-yl)-1H-pyrazol-4-yl}pyridine], which chromatographic logP is on record?
Its chromatographic logP is 1.64.

Which chromatographic logP does the source give for `c1cnc2c(-c3c(-c4ccncc4)cnn3C3CCCCO3)cccc2c1` (stereo not shown) [Compound 99, 8-[4-(pyridin-4-yl)-1-(tetrahydro-2H-pyran-2-yl)-1H-pyrazol-5-yl]quinoline] here?
Its chromatographic logP is 1.09.

For `Fc1ccc(-c2nn(Cc3cccnc3)cc2-c2ccncc2)cc1` [Compound 100], which chromatographic logP is on record?
The chromatographic logP was 0.78.

With `Fc1ccc(-c2nn(Cc3ccc(OC(F)F)cc3)cc2-c2ccncc2)cc1` [Compound 109] as the compound, how does the chromatographic logP read?
The chromatographic logP was 1.88.

For `Fc1ccc(-c2nn(-c3nnc(C(F)(F)F)s3)cc2-c2ccncc2)cc1` [Compound 111], which chromatographic logP is on record?
Its chromatographic logP is 2.9.

Which chromatographic logP does the source give for `Fc1ccc(-c2nn(-c3cc(C(F)(F)F)ncn3)cc2-c2ccncc2)cc1` [Compound 112] here?
The chromatographic logP was 2.73.

Which chromatographic logP does the source give for `Fc1ccc(-c2nn(Cc3ccccn3)cc2-c2ccncc2)cc1` [Compound 115] here?
Its chromatographic logP is 0.99.

With `Fc1ccc(-c2nn(CCc3ccccc3Cl)cc2-c2ccncc2)cc1` [Compound 119] as the compound, how does the chromatographic logP read?
Its chromatographic logP is 2.04.

Which chromatographic logP does the source give for `Fc1ccc(-c2nn(Cc3ccncc3)cc2-c2ccncc2)cc1` [Compound 121] here?
The chromatographic logP was 0.25.

With `OCC(O)Cn1cc(-c2ccncc2)c(-c2ccc(F)cc2)n1` (stereo not shown) [Compound 124] as the compound, how does the chromatographic logP read?
Its chromatographic logP is 0.17.

Which chromatographic logP does the source give for `Fc1ccc(-c2nn(Cc3cccc(-c4ccccc4)c3)cc2-c2ccncc2)cc1` [Compound 125] here?
The chromatographic logP was 2.38.

For `Fc1ccc(-c2nn(Cc3ccccc3F)cc2-c2ccncc2)cc1` [Compound 128], which chromatographic logP is on record?
The chromatographic logP was 1.84.

Which chromatographic logP does the source give for `Fc1ccc(Cn2cc(-c3ccncc3)c(-c3ccc(F)cc3)n2)cc1` [Compound 130] here?
Its chromatographic logP is 1.69.

With `Fc1ccc(-c2nn(Cc3ccc(-c4ccccc4)cc3)cc2-c2ccncc2)cc1` [Compound 131] as the compound, how does the chromatographic logP read?
Its chromatographic logP is 2.39.

Which chromatographic logP does the source give for `Fc1ccc(-c2nn(Cc3ccc(F)c(Oc4ccccc4)c3)cc2-c2ccncc2)cc1` [Compound 139] here?
Its chromatographic logP is 2.4.

Which chromatographic logP does the source give for `Fc1ccc(-c2nn(Cc3ncc[nH]3)cc2-c2ccncc2)cc1` [Compound 143] here?
The chromatographic logP was 0.41.

For `CC(=O)OCCn1cc(-c2ccncc2)c(-c2ccc(F)cc2)n1` [Compound 145], which chromatographic logP is on record?
The chromatographic logP was 1.05.

Which chromatographic logP does the source give for `CC(C)Cn1cc(-c2ccnc3c2CC(=O)N3)c(-c2ccc(F)cc2)n1` [Compound 147] here?
The chromatographic logP was 2.6.

Which chromatographic logP does the source give for `C=CCNc1nccc(-c2cnn(CC(C)C)c2-c2ccc(F)cc2)n1` [Compound 149] here?
The chromatographic logP was 2.37.
